{"source": "paper PMC11793105", "about": "“A kalihinol analog disrupts apicoplast function and vesicular trafficking in P. falciparum malaria” (Science (New York, N.Y.), 2024)", "key": {"P. falciparum cultures": {"test_system": "P. falciparum cultures", "assay": "Exponential killing rate at IC80", "assay_type": "cell-based, Plasmodium falciparum", "conditions": "triplicate"}, "[1]": {"test_system": "P. falciparum 3D7 parasites", "assay": "Isopentenyl pyrophosphate (IPP) rescue assay", "assay_type": "cell-based, Plasmodium falciparum", "conditions": "drug at IC80 for one IEC before IPP (200 μM)", "text": "Fig. 2. […] Nuclei are stained with 4’,6-diamidino-2-phenylindole (DAPI; blue). […] (B) Dose-dependent interactions between MED6-189 (blue) and various antimalarials with known mechanisms of action (red). […] The regression line represents a nonlinear regression (variable slope with four parameters), with significant differences considered if P < 0.05. […] Isobologram curves are expected to be parallel to the diagonal for additive drug pairs, concave for synergistic drug pairs, and convex for antagonistic drug pairs. […] The analysis was performed using a two-way ANOVA, n = 3, with P < 0.05 significance.\nIPP is a product of the MEP/DOXP pathway, and its supplementation reduces susceptibility to MEP inhibitors. […] Parasites were drugged at 80% inhibitory concentrations (IC80) for one IEC before IPP (200 μM) supplementation."}}}
{"smiles": "O=CN(O)CCCP(=O)(O)O", "note": "[fosmidomycin, reference compound]", "values": [{"measurement": "Exponential killing rate k = (1/t)* log10(N0/Nt)", "setting": "P. falciparum cultures; at IC80, 48 HPS", "result": 0.007019}, {"measurement": "Exponential killing rate k = (1/t)* log10(N0/Nt)", "setting": "P. falciparum cultures; at IC80, 72 HPS", "result": 0.01081}, {"measurement": "Exponential killing rate k = (1/t)* log10(N0/Nt)", "setting": "P. falciparum cultures; at IC80, 100 HPS", "result": 0.008797}, {"measurement": "rescue of parasites by IPP supplementation", "setting": "[1]", "result": "survived the second IEC and initiated a third cycle"}]}
